Results reported in patent US20090221581A1, “Methods of treating pain” (priority 2005, published 2009).

Legend:
CDK6/CycD1 = molecular target: T1, CDK6/CycD1 (Homo sapiens, UniProt Q00534); assay: In vitro kinase inhibition assay, CDK6/CycD1; type: biochemical
T1 construct: host or cells: Sf9 insect cells, baculovirus
Method: In vitro kinase inhibition assays may be performed according to the following protocol:
Compounds are used as 1×10^−02 M stock solutions in 100% DMSO, 100 μl each in column 2 of three 96-well V-shaped microtiter plates (in the following, said plates are referred to as “master plates”).
Subsequently, the 1×10^−02 M stock solutions in column 2 of the master plates are subjected to a serial, semi-logarithmic dilution using 100% DMSO as a solvent, resulting in 10 different concentrations, the dilution endpoint being 3×10^−07 M/100% DMSO in column 12. Column 1 and 7 are filled with 100% DMSO as controls. […]
For the determination of inhibitory profiles, the following protein kinases were used: CDK2/CycA, CDK4/CycD1, CDK6/CycD1 and CDK9/CycT. […] The purity of each kinase is determined by SDS-PAGE/silver staining and the identity of each kinase is verified by western blot analysis with kinase specific antibodies or by mass spectroscopy. […]
Reaction mixtures are incubated at 30° C. for 80 minutes. […] Incorporation of ^33P is determined with a microplate scintillation counter (Microbeta, Wallac). […]
The median value of the counts in column 1 (n=8) of each assay plate is defined as “low control”. This value reflects unspecific binding of radioactivity to the plate in the absence of a protein kinase but in the presence of the substrate. […]

carrageenan-treated mice = assay: Carrageenan assay, paw edema; type: in vivo; settings: 30 mg/kg i.p. 30 min prior to carrageenan
Excerpt: The model of carrageenan-induced paw edema constitutes a standard laboratory assay used to predict anti-inflammatory activity of therapeutically active compounds and reduction of inflammation-induced pain perception achieved by administration of therapeutically active compounds.
The basic measurement constitutes in the measurement of edema size and of mechanical as well as thermal hypersensitivity in response to irritants, such as carrageenan.
Inflammation and subsequent inflammatory pain is induced by subcutaneous injection of 25 μl of 1% carrageenan (in saline) into the hind paw (ipsi-lateral paw) of mice. Groups of 10 mice each received compound A, 30 mg/kg body weight, vehicle (DMA/Labrafil; 10:90) and saline (physiol. NaCl) by i.p. injection 30 min prior to carrageenan injection.
Paw edema induced by carrageenan injection was detected by increased paw size measured from dorsal to plantar at the metatarsus region of the injected (ipsi-lateral) paws. Sizes of ipsi- and contra-lateral paws (see FIG. 6, paw size [mm]) served as surrogate markers for inflammation and were measured at several time points after carrageenan injection: 1 h before injection (−1), immediately after injection, 1 h (1), 2 h (2), 4 h (4), 5 h (5), 6 h (6), 7 h (7), 24 h (24), 48 h (48), 72 h (72), 96 h (96), and 98 h (98) after injection. […]

T1 sequence (Q00534 whole entry): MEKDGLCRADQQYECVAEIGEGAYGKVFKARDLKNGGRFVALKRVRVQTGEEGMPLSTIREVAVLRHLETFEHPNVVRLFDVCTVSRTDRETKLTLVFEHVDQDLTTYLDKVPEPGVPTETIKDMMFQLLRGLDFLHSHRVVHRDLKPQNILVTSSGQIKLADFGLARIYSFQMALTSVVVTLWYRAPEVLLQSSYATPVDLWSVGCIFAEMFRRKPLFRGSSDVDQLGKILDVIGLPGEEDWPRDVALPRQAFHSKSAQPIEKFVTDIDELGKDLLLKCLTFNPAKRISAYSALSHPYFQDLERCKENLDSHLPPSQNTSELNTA
T1 sequence (P24385 whole entry partner): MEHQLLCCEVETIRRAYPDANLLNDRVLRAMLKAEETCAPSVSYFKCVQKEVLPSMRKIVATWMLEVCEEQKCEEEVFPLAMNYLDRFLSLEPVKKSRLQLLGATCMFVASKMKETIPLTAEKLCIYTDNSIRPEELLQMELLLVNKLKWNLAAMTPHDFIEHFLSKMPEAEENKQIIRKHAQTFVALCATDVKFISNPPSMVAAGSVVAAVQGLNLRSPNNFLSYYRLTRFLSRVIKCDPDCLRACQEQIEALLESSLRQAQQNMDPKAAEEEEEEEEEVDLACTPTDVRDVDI

- IC50 (CDK6/CycD1): 1910 nM
Compound: COc1ccccc1-c1cc(Nc2cccc(S(N)(=O)=O)c2)ncn1 [Compound A]
- increase in paw size (carrageenan-treated mice; 24 h after carrageenan injection (control mice 30%)): 8%
- increase in paw size (carrageenan-treated mice; within the first hour after carrageenan injection): 10%
